Data set [1] concerns several key kinases close to EGFR/HER2. Put plainly: Kinase selectivity profile. To be noted: versus EGFR/HER2. It is filed as biochemical. How it is done:
(§1) Assays for 4 serine/threonine kinases using radio labeled [γ-^32P] ATP (GE Healthcare, Piscataway, NJ) were performed in 96 well plates. Mitogen-activated protein kinase p38α (p38α), was expressed as N-terminal FLAG-tagged protein using a baculovirus expression system. Aurora-A and -B were expressed as N-terminal 6xHis tagged protein using a baculovirus expression system. CDK2/CycA was expressed as C-terminal 6His-tagged CDK2, and N-terminal GST-tagged Cyclin A protein using a baculovirus expression system.
(§2) The cytoplasmic domain of vascular endothelial growth factor receptor 2 (VEGFR2), platelet-derived growth factor receptor α (PDGFRα), cSRC were purchased from Millipore Corp. Assays for 3 tyrosine kinases were performed in 384 well plates using the Alphascreen® system (PerkinElmer) at room temperature. Enzyme reactions were performed in 50 mM Tris–HCl, pH7.5, 5 mM MnCl2, 5 mM MgCl2, 0.01% Tween-20, 2 mM dithiothreitol and 0.1 μg/ml biotinylated poly-GluTyr (4:1) containing optimized concentration of enzyme and ATP as described below.

The next data set has as its target T1, cSRC (Homo sapiens, UniProt P12931).
T1 construct: purchased Millipore Corp
Nature of the data set: Tyrosine kinase profiling (Alphascreen), cSRC. Particulars: ATP concentration = Km. Format: biochemical. How it is done:
as §2
(§3) Prior to the kinase reaction, compound and enzyme were incubated for 5 min at room temperature. The reactions were initiated by adding ATP. After the reaction period as described below at room temperature, the reactions were stopped by the addition of 25 μl of 100 mM EDTA, 10 μg/ml Alphascreen streptavidin donor beads and 10 μg/ml acceptor beads described below in 62.5 mM HEPES, pH 7.4, 250 mM NaCl, and 0.1% BSA. Plates were incubated in the dark for more than 12 h and then read by EnVision 2102 Multilabel Reader (PerkinElmer). The well containing substrate and enzyme without compound was used as total reaction control. […]

The next data set addresses T2, human EGFR (Homo sapiens, UniProt P00533).
T2 construct: the cytoplasmic domain (amino acids 669-1210) of human EGFR; FLAG (DYKDDDD) (N); made in house
Nature of the data set: EGFR kinase assay ([γ-32P] ATP, poly-Glu-Tyr). It is filed as biochemical. On the procedure: The expressed HER2 kinase and EGFR kinase were purified by anti-FLAG M2 affinity gel (Sigma-Aldrich, USA). The HER2 and EGFR kinase assays were performed using radiolabeled [γ-^32P] ATP (GEHealthcare, USA) in 96-well plates. The kinase reactions were performed in 50 mmol/L Tris-HCl, pH7.5, 5 mmol/L MnCl2, 0.01% Tween-20 and 2 mmol/L DTT containing 0.9 μCi of [γ-^32P] ATP per reaction, 50 μmol/L ATP, 5 μg/mL poly-Glu-Tyr (4:1) and 0.25 μg/mL of purified Her2 or EGFR cytoplasmic domain in a total volume of 50 μL. […] Kinase reactions were initiated by adding ATP. After the kinase reaction incubated for 10 minutes at room temperature, reactions were terminated by the addition of 10% (final concentration) trichloroacetic acid. The [γ-^32P]-phosphorylated proteins were filtered in a harvest plate (Millipore, USA) with a cell harvester (PerkinElmer, USA) and washed free of [γ-^32P] ATP with 3% phosphoric acid. The plates were dried, followed by the addition of 25 μL of MicroScintO (PerkinElmer, USA). Radioactivity was counted by a Topcount scintillation counter (PerkinElmer, USA).

Another data set has as its target T3, Aurora B (Homo sapiens, UniProt Q96GD4).
T3 construct: 6xHis (N); made in house; host or cells: baculovirus expression system
Nature of the data set: Serine/threonine kinase profiling ([γ-32P] ATP), Aurora B. It is filed as biochemical. To be noted: ATP concentration = Km. How it is done:
as §1
(§4) The reaction conditions were optimized for each kinase: p38α (100 ng/well of enzyme, 1 μg/well of MBP (Wako Pure Chemical Ind., Osaka, Japan), 0.1 μCi/well of [γ-^32P] ATP, 60 min reaction at 30 ℃); Aurora-A and -B (50 ng/well of enzyme, 30 μM of Aurora substrate peptide, 0.2 μCi/well of [γ-^32P] ATP, 60 min reaction at room temperature); CDK2/CycA (1.8 mUnits/well of enzyme, 1 μg/well of Histone H1 (Calbiochem), 0.2 μCi/well of [γ-^32P] ATP, 20 min reaction at room temperature).
(§5) All the four enzyme reactions were performed in 25 mM HEPES, pH 7.5, 10 mM magnesium acetate, 1 mM dithiothreitol and 0.5 μM ATP containing optimized concentration of enzyme, substrate and radiolabeled ATP as described above in a total volume of 50 μl. […] The radioactivity was counted by a TopCount scintillation counter (PerkinElmer).

For another data set, the target named is T4, VEGFR2 (Homo sapiens, UniProt P35968).
T4 construct: The cytoplasmic domain of vascular endothelial growth factor receptor 2 (VEGFR2); purchased Millipore Corp
T4 sequence (P35968 786-1356 limits assumed, species assumed): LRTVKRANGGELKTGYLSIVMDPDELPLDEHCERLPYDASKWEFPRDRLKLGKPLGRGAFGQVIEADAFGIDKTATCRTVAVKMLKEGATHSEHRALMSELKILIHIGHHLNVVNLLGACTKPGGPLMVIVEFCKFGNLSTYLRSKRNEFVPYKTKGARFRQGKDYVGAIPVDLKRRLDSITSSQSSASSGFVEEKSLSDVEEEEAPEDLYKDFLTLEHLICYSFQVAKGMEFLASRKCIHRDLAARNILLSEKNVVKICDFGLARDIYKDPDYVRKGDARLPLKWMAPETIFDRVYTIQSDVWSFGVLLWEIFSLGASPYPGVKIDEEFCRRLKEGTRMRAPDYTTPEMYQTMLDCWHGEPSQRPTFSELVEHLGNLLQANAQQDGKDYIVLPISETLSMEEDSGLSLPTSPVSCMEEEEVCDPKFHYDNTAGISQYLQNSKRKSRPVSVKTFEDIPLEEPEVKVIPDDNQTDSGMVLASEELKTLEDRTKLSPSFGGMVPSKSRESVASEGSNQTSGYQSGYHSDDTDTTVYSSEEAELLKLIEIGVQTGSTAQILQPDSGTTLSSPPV
Nature of the data set: Tyrosine kinase profiling (Alphascreen), VEGFR2. It is filed as biochemical. To be noted: ATP concentration = Km. On the procedure: as §2, §3

A further data set deals with A431 cells. Put plainly: Antiproliferation WST-1 assay, A431. Format: cell-based, human. To be noted: Homo sapiens, A-431, WST-1 assay; A431, overexpression of EGFR; read-out: Cellular IC50, A431. On the procedure: WST-1 is better than MTT for analyzing cell proliferation, because it can be reduced to soluble formazan by dehydrogenase in mitochondria and has little toxicity to cells. Cell proliferation was determined using WST-1 dye (Beyotime Inst Biotech, China) according to manufacture’s instructions. Brieﬂy, 5 × 10^3 cells per well were seeded in a 96-well plate, grown at 37 ℃ for 24 h, and then placed in serum-starved conditions for a further 6 h. Subsequently, cells were treated with compounds (Table 1) at increasing concentrations in the presence of 10% FBS for 24 or 48h. After 10 µL WST-1 dye was added to each well, cells were incubated at 37 ℃ for 2 h and the absorbance was ﬁnally determined at 450 nm using a microplate reader.
For orientation: Tetrazolium assays rely on reduction of a dye to a coloured formazan, in cell work by metabolically active cells.

Another data set deals with T5, p38α (Homo sapiens, UniProt Q16539).
T5 construct: FLAG (N); made in house; host or cells: baculovirus expression system
T5 sequence (Q16539 whole entry): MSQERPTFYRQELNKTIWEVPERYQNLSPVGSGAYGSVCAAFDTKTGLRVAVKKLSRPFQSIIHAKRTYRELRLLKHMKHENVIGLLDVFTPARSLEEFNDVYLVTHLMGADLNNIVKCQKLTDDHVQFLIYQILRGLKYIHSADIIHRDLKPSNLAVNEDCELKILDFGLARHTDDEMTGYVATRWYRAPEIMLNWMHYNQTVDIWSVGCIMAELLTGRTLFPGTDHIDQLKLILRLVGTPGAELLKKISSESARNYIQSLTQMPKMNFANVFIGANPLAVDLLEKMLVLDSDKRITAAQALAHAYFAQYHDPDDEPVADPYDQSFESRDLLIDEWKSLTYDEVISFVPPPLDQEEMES
Put plainly: Serine/threonine kinase profiling ([γ-32P] ATP), p38α. It is filed as biochemical. How it is done: as §1, §4, §5

[2] abbreviates: converted from IC50 by online calculator.

This is an account of results in publication PMC3731256, “Optimization of Substituted 6-Salicyl-4-Anilinoquinazoline Derivatives as Dual EGFR/HER2 Tyrosine Kinase Inhibitors” (PLoS ONE, 2013).

T2 sequence (P00533 669-1210): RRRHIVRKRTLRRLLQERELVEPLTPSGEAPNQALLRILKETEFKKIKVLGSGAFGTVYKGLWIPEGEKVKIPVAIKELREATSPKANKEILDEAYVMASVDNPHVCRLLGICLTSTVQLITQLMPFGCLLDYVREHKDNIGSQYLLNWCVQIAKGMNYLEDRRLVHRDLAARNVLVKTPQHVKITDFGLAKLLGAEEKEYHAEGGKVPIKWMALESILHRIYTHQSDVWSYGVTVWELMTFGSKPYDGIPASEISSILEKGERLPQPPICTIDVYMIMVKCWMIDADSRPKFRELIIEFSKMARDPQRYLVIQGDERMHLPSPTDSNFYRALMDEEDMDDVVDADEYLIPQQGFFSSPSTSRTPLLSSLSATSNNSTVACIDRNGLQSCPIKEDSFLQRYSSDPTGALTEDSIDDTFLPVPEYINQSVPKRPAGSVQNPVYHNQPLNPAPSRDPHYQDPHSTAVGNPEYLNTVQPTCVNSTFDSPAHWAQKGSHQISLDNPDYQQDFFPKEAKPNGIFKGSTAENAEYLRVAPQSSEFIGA
T1 sequence (P12931 whole entry, species assumed): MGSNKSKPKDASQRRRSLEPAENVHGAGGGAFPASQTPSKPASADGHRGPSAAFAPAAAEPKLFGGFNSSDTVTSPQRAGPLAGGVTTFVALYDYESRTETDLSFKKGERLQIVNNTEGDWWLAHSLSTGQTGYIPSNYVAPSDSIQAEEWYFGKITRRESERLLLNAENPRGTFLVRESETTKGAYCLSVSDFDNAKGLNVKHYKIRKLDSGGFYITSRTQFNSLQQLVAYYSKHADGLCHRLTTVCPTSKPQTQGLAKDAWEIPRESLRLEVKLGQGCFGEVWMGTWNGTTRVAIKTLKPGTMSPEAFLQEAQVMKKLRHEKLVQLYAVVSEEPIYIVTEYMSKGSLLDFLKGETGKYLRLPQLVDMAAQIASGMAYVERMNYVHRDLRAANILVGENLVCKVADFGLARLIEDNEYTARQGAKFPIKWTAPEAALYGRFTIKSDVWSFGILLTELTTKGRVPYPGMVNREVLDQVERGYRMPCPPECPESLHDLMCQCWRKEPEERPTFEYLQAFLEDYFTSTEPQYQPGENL
T3 sequence (Q96GD4 whole entry): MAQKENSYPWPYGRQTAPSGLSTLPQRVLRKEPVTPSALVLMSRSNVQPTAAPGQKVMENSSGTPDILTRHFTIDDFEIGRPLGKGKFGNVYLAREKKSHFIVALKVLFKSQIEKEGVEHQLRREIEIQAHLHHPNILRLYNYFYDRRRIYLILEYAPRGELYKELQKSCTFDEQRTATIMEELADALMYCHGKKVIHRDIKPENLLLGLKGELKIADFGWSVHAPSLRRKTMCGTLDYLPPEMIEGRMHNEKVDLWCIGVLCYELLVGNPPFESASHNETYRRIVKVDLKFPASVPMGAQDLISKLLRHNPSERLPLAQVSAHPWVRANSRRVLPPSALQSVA

One may read the IC50 as the point on the concentration scale where inhibition reaches its midpoint. A word on the melting point: it is the temperature of the solid-liquid transition. `O=C(Nc1ccc2ncnc(Nc3cccc(Br)c3)c2c1)c1ccc(C(F)(F)F)cc1O` [Compound 21, N-(4-(3-bromophenylamino)quinazolin-6-yl)-2-hydroxy-4-(trifluoromethyl)benzamide] had a melting point of 289 to 291 °C. Moreover, in data set [1], the “selectivity against major of other kinases screened” value was “more than 100 fold”. On cSRC, this compound returned an IC50 of 11.9 ± 0.78 µM. The “pIC50 EGFR” value on human EGFR (setting [2]) is listed as 6.92. The IC50 on human EGFR (phosphorylation of poly-Glu-Tyr copolymer, mean, >1 determination, read-out: Enzyme activity IC50 against EGFR kinase) was found to be 0.12 ± 0.012 µM. This compound also showed an IC50 against Aurora B of 63.7 ± 1.02 µM. The same compound yielded an IC50 against VEGFR2 of 29.2 ± 0.98 µM. In addition, in the data set on A431 cells, the IC50 is 0.67 ± 0.002 µM. This compound also registered an IC50 at p38α (ATP concentration = Km) of 16.1 ± 0.37 µM. Besides, on p38α (setting [2]), the “pIC50 p38α” value is 4.79.
